According to the NIST ThermoML archive (doi:10.1016/j.tca.2013.09.032):

Settings: 101.33 kPa, Crystal, Vacuum adiabatic calorimetry

Cc1cc2nc3c(=O)[nH]c(=O)nc-3n(C[C@H](O)[C@H](O)[C@H](O)CO)c2cc1C [riboflavin]
Settings	molar entropy [J/K/mol]
1 K	0.0261
2 K	0.105
3 K	0.235
4 K	0.418
5 K	0.653
6 K	0.941
7 K	1.28
8 K	1.66
9 K	2.1
10 K	2.58
15 K	5.898
20 K	10.48
25 K	15.97
30 K	22.23
35 K	29.06
40 K	36.3
45 K	43.84
50 K	51.59
60 K	67.55
70 K	83.87
80 K	100.3
90 K	116.8
100 K	133.4
110 K	149.9
120 K	166.2
130 K	182.4
140 K	198.4
150 K	214.3
160 K	230.1
170 K	245.7
180 K	261.3
190 K	276.8
200 K	292.2
210 K	307.5
220 K	322.7
230 K	337.9
240 K	353
250 K	368
260 K	383
270 K	397.9
273.15 K	402.6
280 K	412.8
290 K	427.7
298.15 K	439.8
310 K	457.3
320 K	472.1
322 K	475
